Like-named read-outs stand apart in the source and are kept apart here.
Key:
[1] = system: trained animals fall off the rotorod; assay: neurotoxicity, rotorod test, mouse; type: in vivo, mice; details: oral, rotorod
Description: (§2) ^(a) Dose at which 50% of trained animals fall off the rotorod

[2] = neurotoxicity, rotorod test, mouse; type: in vivo, mice; details: in vivo, po
Description: as §2

[3] = system: maximal electroshock seizures (MES); assay: electroshock test, maximal electroshock seizures (MES), inhibition of hind limb tonus, mouse; type: in vivo; details: read-out: Inhibition of Hind Limb Tonus ED50 (limits), MOUSE MES
Description: (§1) The pharmacological activity of the compounds of the invention have been determined according to the following procedures. Their anticonvulsant activity was determined in the metrazol antagonism test in mice (MMS) (Soaje-Echaque E; Lim RKS, J Pharmac Exp Ther 1962, 138, 224; Desmedt LKC; Niemegeers CJE; Lewi PJ; Janssen PAJ, Arzneim-Forsch (Drug Res), 1976, 26, 1592) and the electroshock test in mice (MES)(Tulloch IF; Walter DS; Howe GM; Howe SJ, Neuropharmacology 1982, 21, 555).

[4] = system: maximal metrazol seizures (MMS); assay: metrazol antagonism test, maximal metrazol seizures (MMS), inhibition of hind limb tonus, mouse; type: in vivo; details: read-out: Inhibition of Hind Limb Tonus ED50 (limits), MOUSE MMS
Description: as §1

[5] = system: maximal electroshock seizures (MES); assay: electroshock test, maximal electroshock seizures (MES), inhibition of hind limb tonus, rat; type: in vivo; details: read-out: Inhibition of Hind Limb Tonus ED50 (limits), RAT MES
[6] = system: electrically and chemically induced seizures; assay: anticonvulsant activity in animal tests (electrically and chemically induced seizures); type: in vivo; details: rat and mouse, oral
Description: as §1

[7] = mouse, MES, oral, t=1 hour, limits in parentheses
[8] = mouse, MMS, oral, t=1 hour, limits in parentheses
[9] = rat, MES, oral, t=1 hour, limits in parentheses

**Q.** Which results are given for `Cl.N=C(N)Nc1nnc(-c2ccccc2C(F)(F)F)s1` [Example 1, 2-Guanidino-5-[2-(trifluoromethyl)phenyl]-1,3,4-thiadiazole hydrochloride]?
**A.** level of neurotoxicity (in words) [1]: acceptable level; TD50 at 1 h [2]: 324 mg/kg; ED50 [3, 7]: 27 mg/kg; ED50 [4, 8]: 45 mg/kg; ED50 [5, 9]: 22 mg/kg; anticonvulsant activity (in words) [6]: potent anticonvulsants blocking both electrically and chemically induced seizures

**Q.** What does the source list for `C/N=C(\N)Nc1nnc(-c2ccccc2C(F)(F)F)s1` [Example 2, 2-(3-Methylguanidino)-5-[2-(trifluoromethyl)phenyl]-1,3,4-thiadiazole]?
**A.** level of neurotoxicity (in words) [1]: acceptable level; TD50 at 1 h [2]: > 400 mg/kg; ED50 [3, 7]: 49 mg/kg; ED50 [4, 8]: 44 mg/kg

**Q.** For `NC(=O)N1c2ccccc2C=Cc2ccccc21` [carbamazepine], which ED50 [3, 7] is on record?
**A.** 20 mg/kg

**Q.** What about the ED50 [4, 8] of the same compound?
**A.** 11 mg/kg

**Q.** And the ED50 [5, 9]?
**A.** 4 mg/kg

**Q.** Which ED50 ([3]; Mus musculus, po, 1 h) does the source give for `CCC1(c2ccccc2)C(=O)NC(=O)NC1=O` [phenobarbital] here?
**A.** 12 mg/kg

**Q.** And the ED50 ([4]; Mus musculus, po, 1 h)?
**A.** 4 mg/kg

**Q.** And the ED50 ([5]; Rattus norvegicus, po, 1 h)?
**A.** 9 mg/kg

**Q.** With `O=C1NC(=O)C(c2ccccc2)(c2ccccc2)N1` [phenytoin] as the compound, how does the ED50 [3, 7] read?
**A.** 8 mg/kg

**Q.** What about the ED50 [4, 8] of the same compound?
**A.** 8 mg/kg

**Q.** And the ED50 [5, 9]?
**A.** 14 mg/kg

— patent US4786627A, “Thiadiazole guanidines” (Reckitt & Colman Products Limited, priority 1987, dated 1988)
